Experimental data published in ChEMBL document CHEMBL6083247, “Discovery of sulfone containing metallo-β-lactamase inhibitors with reduced bacterial cell efflux and histamine release issues” (Bioorg Med Chem Lett, 2024).

Columns and labels:
[1] = Toxicity in rat mast cells assessed as degranulation by measuring histamine release at 900 microM; assay type: cell-based; conditions: mast cell
[2] = Volume of distribution at steady state in rhesus monkey at 1 mg/kg, iv; assay type: ADME, organism-based, Macaca mulatta; conditions: in vivo, read-out: Vdss
[3] = Efflux ratio of MITC95 for antibacterial activity against wildtype isogenic efflux/IMP-1 expressing Pseudomonas aeruginosa MB9798 assessed as inhibition of bacterial growth in presence of IMI to MITC95 for antibacterial activity against mutant isogenic efflux/IMP-1 expressing Pseudomonas aeruginosa MB9799 assessed as inhibition of bacterial growth in presence of IMI; assay type: functional
[4] = Cmax in rhesus monkey at 1 mg/kg, iv measured after 24 hrs; assay type: ADME, organism-based, Macaca mulatta; conditions: in vivo
[5] = Inhibition of Metallo-beta-lactamase VIM-1 (unknown origin); set-up: species or system Bacteria
[6] = AUC in rhesus monkey at 1 mg/kg, iv; assay type: ADME, organism-based, Macaca mulatta; conditions: in vivo
[7] = Cmax in rat at 1 mg/kg, iv; assay type: ADME, organism-based; conditions: in vivo
[8] = Toxicity in cardiovascular rat model assessed as increase in histamine release in plasma at 100 mg/kg, iv; assay type: organism-based; conditions: in vivo
Escherichia coli [9] = test: Antibacterial activity against NDM-1 expressing Escherichia coli CLB30016 assessed as inhibition of bacterial growth in presence of IMI by absorbance based assay; assay type: functional
[10] = MRT in rhesus monkey at 1 mg/kg, iv; assay type: ADME, organism-based, Macaca mulatta; conditions: in vivo
Staphylococcus aureus = test: Antibacterial activity against wild type Staphylococcus aureus; assay type: functional, organism-based
[11] = AUC in rat at 1 mg/kg, iv; assay type: ADME, organism-based; conditions: in vivo
[12] = Inhibition of Metallo-beta-lactamase VIM-2 (unknown origin); set-up: species or system Bacteria
[13] = Clearance in rat at 1 mg/kg, iv; assay type: ADME, organism-based; conditions: in vivo
[14] = Toxicity in cardiovascular rat model assessed as increase in histamine release in plasma at 30 mg/kg,iv for 20 mins and measured after 20 mins of iv infusion with 100 mg/kg; assay type: organism-based; conditions: in vivo, 40 min
[15] = Inhibition of Metallo-beta-lactamase IMP-1 (unknown origin); set-up: species or system Bacteria
[16] = Hemolytic activity in sheep red blood cells assessed as hemolysis; assay type: toxicity, cell-based, Ovis aries, Erythrocyte
Klebsiella pneumoniae = test: Antibacterial activity against VIM-1 expressing Klebsiella pneumoniae IHMA599644 assessed as inhibition of bacterial growth in presence of IMI by absorbance based assay; assay type: functional
Escherichia coli [17] = test: Antibacterial activity against efflux mutant Escherichia coli; assay type: functional, organism-based
[18] = Volume of distribution at steady state in rat at 1 mg/kg, iv; assay type: ADME, organism-based; conditions: in vivo, read-out: Vdss
Serratia marcescens = test: Antibacterial activity against IMP-1 expressing Serratia marcescens CL5741 assessed as inhibition of bacterial growth in presence of IMI by absorbance based assay; assay type: functional
Pseudomonas aeruginosa [19] = test: Antibacterial activity against wildtype isogenic efflux/IMP-1 expressing Pseudomonas aeruginosa MB9798 assessed as inhibition of bacterial growth in presence of IMI by absorbance based assay; assay type: functional
[20] = Toxicity in cardiovascular rat model assessed as decrease in blood pressure at 30 mg/kg,iv for 20 mins and measured after 20 mins of iv infusion with 100 mg/kg; assay type: organism-based; conditions: in vivo, 40 min
[21] = Unbound fraction in rhesus monkey plasma at 1 mg/kg, iv; assay type: ADME, organism-based, Macaca mulatta
[22] = MRT in rat at 1 mg/kg, iv; assay type: ADME, organism-based; conditions: in vivo
[23] = Toxicity in rhesus monkey assessed as adverse effects at 1 mg/kg, iv measured after 24 hrs; assay type: organism-based, Macaca mulatta; conditions: in vivo
[24] = Cmax in rhesus monkey at 1 mg/kg, iv; assay type: ADME, organism-based, Macaca mulatta; conditions: in vivo
[25] = Cmax in rat at 100 mg/kg, iv; assay type: ADME, organism-based; conditions: in vivo
[26] = Unbound fraction in rat plasma at 1 mg/kg, iv; assay type: ADME, organism-based
[27] = Clearance in rhesus monkey at 1 mg/kg, iv; assay type: ADME, organism-based, Macaca mulatta; conditions: in vivo
[28] = target: Metallo-beta-lactamase type 2 (Bacteria, UniProt C7C422); test: Inhibition of Metallo-beta-lactamase NDM-1 (unknown origin)
Sequence of Metallo-beta-lactamase type 2 (C7C422 whole entry): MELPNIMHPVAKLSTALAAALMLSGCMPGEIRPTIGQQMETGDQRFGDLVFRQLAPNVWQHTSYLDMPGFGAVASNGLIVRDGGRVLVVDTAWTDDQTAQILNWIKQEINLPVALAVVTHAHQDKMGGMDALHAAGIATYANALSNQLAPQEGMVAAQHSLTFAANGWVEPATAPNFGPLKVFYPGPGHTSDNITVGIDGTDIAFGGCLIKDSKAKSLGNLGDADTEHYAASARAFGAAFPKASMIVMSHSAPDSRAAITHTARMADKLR

Pseudomonas aeruginosa [29] = test: Antibacterial activity against mutant isogenic efflux/IMP-1 expressing Pseudomonas aeruginosa MB9799 assessed as inhibition of bacterial growth in presence of IMI by absorbance based assay; assay type: functional
[30] = Toxicity in rat assessed as adverse effect at 4 mg/kg, iv; assay type: organism-based; conditions: in vivo
[31] = Unbound fraction in rat plasma at 4 mg/kg, iv; assay type: ADME, organism-based
[32] = Cmax in rat at 4 mg/kg, iv; assay type: ADME, organism-based; conditions: in vivo
[33] = Clearance in rat at 4 mg/kg, iv; assay type: ADME, organism-based; conditions: in vivo
[34] = Toxicity in cardiovascular rat model assessed as increase in histamine release in plasma at 4 mg/kg, iv; assay type: organism-based; conditions: in vivo
[35] = Volume of distribution at steady state in rat at 4 mg/kg, iv; assay type: ADME, organism-based; conditions: in vivo, read-out: Vdss
[36] = AUC in rat at 4 mg/kg, iv; assay type: ADME, organism-based; conditions: in vivo
[37] = MRT in rat at 4 mg/kg, iv; assay type: ADME, organism-based; conditions: in vivo
[38] = Toxicity in rat mast cells assessed as degranulation by measuring histamine release at >=100 microM; assay type: cell-based; conditions: mast cell

NCCS(=O)(=O)c1ccc(-c2cccc3sc(N)nc23)c(-c2nn[nH]n2)c1S(N)(=O)=O
Activity [1]: Non-toxic
Vd [2]: 0.39 L/kg
Ratio [3]: ~1
Cmax [4]: 18 µM
IC50 [5]: 0.31 nM
AUC [6]: 10.2 µM·h
Cmax [7]: 5.8 µM
Activity [8]: Non-toxic
MITC95 (Escherichia coli [9]): 0.78 µM
MRT [10]: 109 min
IC50 (Staphylococcus aureus): > 200000 nM
AUC [11]: 1.15 µM·h
IC50 [12]: 1 nM
clearance [13]: 32.1 mL/min/kg
Activity [14]: Non-toxic
IC50 [15]: 0.23 nM
IC50 [16]: > 200000 nM
MITC95 (Klebsiella pneumoniae): 3.13 µM
IC50 (Escherichia coli [17]): > 200000 nM
Vd [18]: 0.46 L/kg
MITC95 (Serratia marcescens): 1.56 µM
MITC95 (Pseudomonas aeruginosa [19]): 0.78 µM
Activity [20]: Toxic
fraction unbound [21]: 0.23
MRT [22]: 13.8 min
Activity [23]: Non-toxic
Cmax [24]: 18 µM
Cmax [25]: 569 µM
fraction unbound [26]: 0.37
clearance [27]: 3.6 mL/min/kg

Cc1ccc(-c2ccc(S(=O)(=O)C3CNC3)c(S(N)(=O)=O)c2-c2nn[nH]n2)c2nc(N)[nH]c12
Ratio [3]: 1
IC50 [28]: 0.04 nM
IC50 [5]: 0.24 nM
MITC95 (Escherichia coli [9]): 1.56 µM
IC50 [15]: 0.47 nM
MITC95 (Klebsiella pneumoniae): 1.56 µM
MITC95 (Serratia marcescens): 0.78 µM
MITC95 (Pseudomonas aeruginosa [19]): 0.78 µM
MITC95 (Pseudomonas aeruginosa [29]): 0.78 µM

NS(=O)(=O)c1c([S+]([O-])C2CCNCC2)ccc(-c2ccc(C3CCNCC3)cc2)c1-c1nnn[nH]1 (stereo not given)
Ratio [3]: 2
IC50 [5]: 1.18 nM
MITC95 (Escherichia coli [9]): 3.13 µM
IC50 [12]: 1090 nM
IC50 [15]: 5.9 nM
MITC95 (Klebsiella pneumoniae): 6.25 µM
MITC95 (Serratia marcescens): 6.25 µM
MITC95 (Pseudomonas aeruginosa [19]): 3.1 µM
MITC95 (Pseudomonas aeruginosa [29]): 1.56 µM

NS(=O)(=O)c1c(S(=O)(=O)C2CCNCC2)ccc(-c2ccc(C3CCNCC3)cc2)c1-c1nnn[nH]1
Ratio [3]: 1
IC50 [5]: 0.31 nM
Cmax [7]: 15.8 µM
MITC95 (Escherichia coli [9]): 1.56 µM
AUC [11]: 8.4 µM·h
IC50 [12]: 4.1 nM
clearance [13]: 3.8 mL/min/kg
IC50 [15]: 0.52 nM
MITC95 (Klebsiella pneumoniae): 3.13 µM
Vd [18]: 0.18 L/kg
MITC95 (Serratia marcescens): 3.13 µM
MITC95 (Pseudomonas aeruginosa [19]): 0.78 µM
MITC95 (Pseudomonas aeruginosa [29]): 0.78 µM
MRT [22]: 46.8 min
fraction unbound [26]: 0.66

CS(=O)(=O)c1ccc(-c2ccc(C3CCNCC3)cc2)c(-c2nnn[nH]2)c1S(N)(=O)=O
Ratio [3]: 8
IC50 [5]: 0.13 nM
MITC95 (Escherichia coli [9]): 3.13 µM
IC50 [12]: 2.6 nM
IC50 [15]: 0.1 nM
MITC95 (Klebsiella pneumoniae): 3.13 µM
MITC95 (Serratia marcescens): 3.13 µM
MITC95 (Pseudomonas aeruginosa [19]): 6.25 µM
MITC95 (Pseudomonas aeruginosa [29]): 0.78 µM

NS(=O)(=O)c1c(S(=O)(=O)C2CNC2)ccc(-c2ccc(C3CCNCC3)cc2)c1-c1nn[nH]n1
Activity [30]: Non-toxic
Ratio [3]: 1
IC50 [5]: 0.2 nM
MITC95 (Escherichia coli [9]): 0.78 µM
IC50 [12]: 2.8 nM
IC50 [15]: 0.21 nM
fraction unbound [31]: 0.55
MITC95 (Klebsiella pneumoniae): 1.56 µM
Cmax [32]: 35.7 µM
clearance [33]: 8.5 mL/min/kg
MITC95 (Serratia marcescens): 1.56 µM
Activity [34]: Non-toxic
MITC95 (Pseudomonas aeruginosa [19]): 0.78 µM
Vd [35]: 0.34 L/kg
AUC [36]: 15.6 µM·h
MITC95 (Pseudomonas aeruginosa [29]): 0.78 µM
MRT [37]: 40.2 min
Activity [38]: Toxic

Nc1nc2c(-c3ccc(S(=O)(=O)C4CCNCC4)c(S(N)(=O)=O)c3-c3nn[nH]n3)cccc2s1
Ratio [3]: 1
IC50 [28]: 0.12 nM
IC50 [5]: 0.26 nM
MITC95 (Escherichia coli [9]): 3.13 µM
IC50 [12]: 0.4 nM
IC50 [15]: 0.46 nM
MITC95 (Klebsiella pneumoniae): 6.25 µM
MITC95 (Serratia marcescens): 3.13 µM
MITC95 (Pseudomonas aeruginosa [19]): 1.56 µM
MITC95 (Pseudomonas aeruginosa [29]): 1.56 µM
